From patent US5831026A, “Process for purifying factor VIII” (Pharmacia & Upjohn AB, priority 1994, dated 1998)
Like-named read-outs stand apart in the source and are kept apart here.

Experiments:
[1] = test system: metal-dependent proteases; experiment: Protease assay with resorufin-labeled casein in harvest solution (conditioned medium); assay type: biochemical, Chinese Hamster; settings: for Mean absorbance: 37° C., 2 h preincubation + 17 h, pH 7.5; for Mean absorbance corrected: blank subtracted
Experimental: The method chosen was a protease assay with casein which was resorufin-labeled. By treatment with proteases, resorufin-labeled peptides are released from the casein. The concentration of these resorufin-labeled peptides in the supernatant is a measure of the proteolytic activity present. The test sample was incubated at 37° C. for a period of time which was dependent upon the sample at issue. The absorption wave-length chosen was 574 run throughout the tests. […]
Preincubation of the conditioned medium with or without EDTA was conducted at 37° C. for 2 h. After the addition of substrate, further incubation was carried out for 17 h. The pH in the incubation mixture was 7.5.
Absorbance corrected, refers to the absorption after subtraction of the blank value.
Conditioned medium (containing human serum albumin) was clarified and imidazole subsequently added in an amount ranging from 3.6 mM up to 360 mM.
Conditioned medium (containing human serum albumin) was clarified and histidine subsequently added in an amount ranging from 0.14 mM to 13.6 mM.

[2] = test system: metal-dependent proteases; settings: 3 mM EDTA in washing and elution liquid, harvest solution no. 2
Experimental: The method chosen was a protease assay with casein which was resorufin-labeled. By treatment with proteases, resorufin-labeled peptides are released from the casein. The concentration of these resorufin-labeled peptides in the supernatant is a measure of the proteolytic activity present. The test sample was incubated at 37° C. for a period of time which was dependent upon the sample at issue. The absorption wave-length chosen was 574 run throughout the tests.
Conditioned mediums (containing human serum albumin) from two consecutive harvests, were clarified and buffered with NH4 Ac. Each resulting solution, with a pH of 6.8, was loaded onto a column containing SP SEPHAROSE® FF sold by Pharmacia AB of Uppsala, Sweden. This cation-exchange chromatography step was performed at about 8° C. After washing, factor VIII was eluted with a salt buffer containing 0.8M NaCl and 0.1M NH4 Ac. The washing liquid as well as the elution liquid contained 3 mM EDTA in the tests with harvest solution no. 2. Tests without EDTA present was carried out for comparison (harvest solution no. 1). […] The concentration of unbound Ca^2+ -ions was determined by an ion-selective electrode.

factor VIII = settings: ambient temperature, vs zero-time value
Experimental: Conditioned mediums (containing human serum albumin) from four harvests being different from the previous Examples were clarified and buffered with NH4 Ac. Each resulting solution, with a pH of 6.8, was loaded onto a column containing SP SEPHAROSE® FF. This cation-exchange chromatography step was performed at about 8° C. After washing, factor VIII was eluted with a salt buffer containing 0.8M NaCl and 0.1M NH4 Ac. The washing liquid as well as the elution liquid contained 3 mM EDTA. Tests without EDTA present were carried out for comparison. The procoagulant activity of factor VIII was determined by use of a chromogenic substrate method, COATEST® Factor VIII kit (Chromogenix AB of Sweden) after storage at ambient temperature for up to 24 hours. The relative standard deviation (RSD) of the method is 7%.

## O=C(O)CN(CCN(CC(=O)O)CC(=O)O)CC(=O)O [EDTA, ethylenediamine tetraacetic acid]
[1]; 0.23 mM EDTA
  Protease activity (%): 43%
  Mean absorbance: 1835
  Mean absorbance corrected: 865
[1]; 1.2 mM EDTA
  Protease activity (%): 8%
  Mean absorbance: 1141
  Mean absorbance corrected: 171
[1]; 2.3 mM EDTA
  Protease activity (%): 5%
  Mean absorbance: 1069
  Mean absorbance corrected: 99
[1]; 11.5 mM EDTA
  Protease activity (%): 1%
  Mean absorbance: 994
  Mean absorbance corrected: 24
[1]; 23 mM EDTA
  Protease activity (%): -2%
  Mean absorbance: 933
  Mean absorbance corrected: -37
[2]; blank subtracted
  Mean absorbance corrected: 0.023
[2]; harvest no. 1 without EDTA = 100
  Protease activity (%): 8%
[2]; incubation 2 h
  Mean absorbance: 0.064
Factor VIII; harvest solution 1, S-eluate storage 0 h
  Factor VIII activity (%) In preparation with 3 mM EDTA: 100%
Factor VIII; harvest solution 1, S-eluate storage 6 h
  Factor VIII activity (%) In preparation with 3 mM EDTA: 98%
Factor VIII; harvest solution 1, S-eluate storage 24 h
  Factor VIII activity (%) In preparation with 3 mM EDTA: 100%
Factor VIII; harvest solution 2, S-eluate storage 0 h
  Factor VIII activity (%) In preparation with 3 mM EDTA: 100%
Factor VIII; harvest solution 2, S-eluate storage 6 h
  Factor VIII activity (%) In preparation with 3 mM EDTA: 101%
Factor VIII; harvest solution 2, S-eluate storage 24 h
  Factor VIII activity (%) In preparation with 3 mM EDTA: 98%
Factor VIII; harvest solution 3, S-eluate storage 0 h
  Factor VIII activity (%) In preparation with 3 mM EDTA: 100%
Factor VIII; harvest solution 3, S-eluate storage 6 h
  Factor VIII activity (%) In preparation with 3 mM EDTA: 109%
Factor VIII; harvest solution 3, S-eluate storage 24 h
  Factor VIII activity (%) In preparation with 3 mM EDTA: 109%
Factor VIII; harvest solution 4, S-eluate storage 0 h
  Factor VIII activity (%) In preparation with 3 mM EDTA: 100%
Factor VIII; harvest solution 4, S-eluate storage 6 h
  Factor VIII activity (%) In preparation with 3 mM EDTA: 103%
Factor VIII; harvest solution 4, S-eluate storage 24 h
  Factor VIII activity (%) In preparation with 3 mM EDTA: 102%
